Assay results published in patent US8053627B2, “Methods for treating demyelination disorders” (University of Chicago, priority 2005, dated 2011).

Key:
[1] = system: oligodendrocytes in adult mice; test: IFN-γ expression in the CNS of adult mice (released from doxycycline at 4 weeks of age); assay type: in vivo
Text: Compared with the actively myelinating oligodendrocytes of young growing animals, oligodendrocytes in adult mice produce lower levels of membrane proteins and lipids, just enough to maintain homeostasis in the myelin structure (Morell, et al. (1999) Basic Neurochemistry: Molecular, Cellular, and Medical Aspects (Philadelphia, Pa.: Lippincott-Raven Publishers): 69-93). The ER of oligodendrocytes in adult animals may thus have more spare capacity to process increased protein load and as such may be less sensitive to disruptions of the protein secretory pathway. To examine this possibility, double transgenic mice were allowed to develop to maturity, at which time IFN-γ expression in the CNS was initiated.

[2] = system: corpus callosum of double transgenic mice treated with cuprizone; test: Cuprizone-induced demyelination/remyelination in GFAP/tTA; TRE/IFN-γ double transgenic mice (DOX− expresses IFN-γ); assay type: in vivo
Experimental: The effects of IFN-γ on demyelination were evaluated in a cuprizone animal model using transgenic mice that allow for temporally regulated delivery of IFN-γ using the tetracycline controllable system (Lin, et al. (2004) J. Neurosci. 24: 10074-10083). The transgenic mice were generated by mating line 110 GFAP/tTA mice on the C57BL/6 background with line 184 TRE/IFN-γ on the C57BL/6 background to produce GFAP/tTA; TRE/IFN-γ double transgenic mice (Lin, et al. (2004) J. Neurosci. 24: 10074-10083). Transcriptional activation of the TRE/IFN-γ transgene by tTA was repressed in the control (DOX+) mice by adding 0.05 mg/ml doxycycline to the drinking water which was provided ad libitum from the day of conception. The DOX+ double transgenic mice were GFAP/tTA; TRE/IFN-γ double transgenic animals fed cuprizone chow and never released from the doxycycline solution. DOX− double transgenic mice were GFAP/tTA; TRE/IFN-γ double transgenic animals fed cuprizone chow and released from doxycycline to induce expression of IFN-γ.
Demyelination was induced in 6-week-old DOX+ and DOX− male mice by feeding the mice a diet of milled mouse chow containing 0.2% cuprizone (Sigma-Aldrich, St. Louis, […].) for up to 6 weeks. Subsequently, both groups of mice were returned to a normal diet for up to 3 weeks to allow remyelination to occur. All animal procedures were conducted in complete compliance with the NIH Guide for the Care and Use of Laboratory Animals and were approved by the Institutional Animal Care and Use Committee of The University of Chicago.
The expression of IFN-γ in these animals was examined by Enzyme-Linked Immunosorbent Assay (ELISA) analysis as follows. Spinal cord and forebrains were removed, rinsed in ice cold PBS, and immediately homogenized in five volumes of PBS with complete protease cocktail (Roche, Indianapolis, Ind.) using a motorized homogenizer. After incubation on ice for 5 min the extracts were cleared by centrifugation at 14000 rpm for 10 min. The protein content of each extract was determined by the DC protein assay (Bio-Rad, Hercules, Calif.). ELISA assays were performed using Mouse IFN-γ Quantikine ELISA kit (R&D system, Minneapolis, Minn.) and MBP antibodies (1:1000; Sternberger Monoclonals) according to the manufacture's instructions.
Real time PCR was used to determine the effect of IFN-yon the expression of MHC-1. RNA was isolated from the corpus callosum (Jurevics, et al., 2002) using Trizol reagent (Invitrogen, Carlsbad, Calif.) and treated with DNAseI (Invitrogen, Carlsbad, Calif.) to eliminate genomic DNA. Reverse transcription was performed using Superscript First Strand Synthesis System for RT-PCR kit (Invitrogen, Carlsbad, Calif.). Real-time PCR was performed with iQ supermix (Bio-Rad, Hercules Calif.) on a Bio-Rad iQ real-time PCR detection system (Bio-Rad, Hercules Calif.). The primers and probes (Integrated DNA Technologies Inc., Coralville, Iowa) for real-time PCR were as follows:
The effect of INF-γ on the population of oligodendrocytes was evaluated by immunohistochemical analysis of oligodendrocytes using an anti-CC1 antibody (APC7, 1:50; EMD Biosciences, Inc., La Jolla, Calif.) Immunohistochemistry was perfomed on brain sections obtained from mice that were first anesthetized mice and perfused through the left cardiac ventricle with 4% paraformaldehyde in 0.1M PBS. The brains were removed, postfixed with paraformaldehyde, cryopreserved in 30% sucrose, embedded in OCT and frozen on dry ice. Frozen sections were cut in a cryostat at a thickness of 10 μm. […]

IFN-γ: pleotropic cytokine secreted by activated T lymphocytes and natural killer cells; delivered to the CNS by transgene or added as recombinant protein
BIP and CHOP in the cerebellum ([1]; 10-week-old double transgenic mice): modest induction
myelin in the CNS (ultrastructural examination) ([1]; 10-week-old, wild-type or PERK+/− background): normal myelin
oligodendrocyte survival ([1]; adult mice, also PERK+/− background): did not affect
CC1 positive oligodendrocytes within the corpus callosum ([2]; DOX− mice, 8 weeks): 78±12.7 /0.04 mm2
NG2 positive OPCs in the corpus callosum ([2]; DOX− mice, week 4 of cuprizone treatment): 46±4.24 /0.04 mm^2
NG2 positive OPCs in the corpus callosum ([2]; DOX− mice, week 6): 31.5±0.71 /0.04 mm^2
expression of myelin genes MBP, PLP and CGT ([2]; DOX− mice, week 6 and week 8): significantly depressed
remyelinated axons (EM) ([2]; DOX− mice, week 8): 26.9%±7%
effect on the initial pathological processes induced by cuprizone exposure ([2]; demyelination phase): does not have a significant effect
expression of MHC-I in the corpus callosum (real-time PCR) ([2]; during remyelination): significant increase
